Here are results for two compounds from patent US20120301895A1, “METHODS OF MODULATING BINDING OF SON OF SEVENLESS TO PHOSPHATIDIC ACID AND IDENTIFYING COMPOUNDS THAT MODULATE SUCH BINDING” (THE RESEARCH FOUNDATION OF STATE UNIVERSITY OF NEW YORK, priority 2007, published 2012).

One test concerns HIF2α. The test can be described thus: HIF2α expression in 786-O cells (Western blot). The format is cell-based, human. To be noted: 0.5% serum, 4 hr, honokiol 20 μM, 1-BtOH 0.8%.
The target in test [1] is T1, Sos-PH (Homo sapiens, UniProt Q07889).
T1 construct: expressed in transfected cells; host or cells: COS-1
T1 sequence (Q07889 422-551): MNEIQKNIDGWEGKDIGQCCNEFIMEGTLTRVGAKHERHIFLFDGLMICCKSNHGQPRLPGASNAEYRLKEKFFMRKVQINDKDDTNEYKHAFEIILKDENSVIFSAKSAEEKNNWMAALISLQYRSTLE
Briefly: PA-induced plasma membrane translocation of GFP-tagged Sos-PH in COS-1 cells (fluorescence microscopy). The format is cell-based, African green monkey. To be noted: membrane-permeable PA 100 μM, 20 min, serum-starved COS-1 cells, wild-type Sos-PH. Here is the method: (§1) In FIG. 6A, COS-1 cells were transfected with GFP-tagged constructs of Sos-PH or Sos-PH-HR/EE. The cells were serum-starved and then treated with PA (100 μM) for 20 min. In FIG. 6B, COS-1 cells were transfected with HA-tagged Sos-ΔC or Sos-ΔC-HR/EE. The cells were serum-starved and then stimulated with serum (20%) for 10 min. For FIGS. 6A-B, the fluorescence staining patterns were analyzed through the acquisition of serial optical Z sections. The images shown represent single 0.25 μm optical sections acquired at the mid plane of the cells with the same exposure time. Membrane localization is reflected by the relative increase in fluorescence intensity at the cell periphery (arrowheads). The boxed areas are enlarged on the top and bottom of the corresponding images. The number of cells displaying plasma membrane localization of the protein is expressed as percentage of the total number of cells scored and normalized to the maximal value obtained for each experiment. […] Results are the mean+/−s.d. of three independent experiments with at least 100 cells scored in each experiment. Scale bars represent 20 μm in all panels. In FIGS. 6C-D, COS-1 cells were co-transfected with HA-tagged Ras and the indicated HA-tagged Sos-ΔC constructs. […] Ras activation was measured by the RBD pull-down assay as described in the Examples. […]

In test [2] the target is T2, Sos-PH (Homo sapiens, UniProt Q07889, H475E/R479E).
T2 construct: expressed in transfected cells; host or cells: COS-1
T2 sequence (Q07889 422-551 H475E/R479E): T1 sequence (Q07889 422-551) with H54E, R58E
The description is as above. It is filed as cell-based, African green monkey. To be noted: membrane-permeable PA 100 μM, 20 min, serum-starved COS-1 cells. Here is the method: as §1

In a further test the test system is Ras. Briefly: Ras activation by Sos-ΔC after PA treatment, RBD pull-down in COS-1 cells. It is filed as cell-based. Conditions: membrane-permeable PA 100 μM, serum-starved COS-1 cells. As for the experimental part:
as §1, with “The boxed areas are enlarged on the top and bottom of the corresponding images.” left out, “experiment.” for “experiment. Scale bars represent 20 μm in all panels. In FIGS. 6C-D, COS-1 cells were co-transfected with HA-tagged Ras and the indicated HA-tagged Sos-ΔC constructs.”
The levels of Ras-GTP were determined by the GST-RBD pull down assay as described previously (Boykevisch et al., “Regulation of Ras Signaling Dynamics by Sos-mediated Positive Feedback,” Curr. Biol. 16:2173-2179 (2006), which is hereby incorporated by reference in its entirety). […]

Positions count from the first letter of the chain named.

Experimental for HIF2α: In FIG. 15B, 786-O cells were plated and then shifted to media containing 0.5% serum 24 hr later. 18 hr later, the cells were treated with 1-Bt0H (0.8%), honokiol (Hon) (20 μM), and t-BtOH (0.8%) as indicated. Cell lysates were prepared 4 hr later and examined for HIF2α and actin expression by Western lot analysis. The experiment shown is representative of two independent experiments.
Extraction of proteins from cultured cells and Western blot analysis of extracted proteins was performed using the ECL system (Amersham) as described previously (Chen et al., “Alternative Phospholipase D/mTOR Survival Signal in Human Breast Cancer Cells,” Oncogene 24:672-9 (2005), which is hereby incorporated by reference in its entirety).
The effect of honokiol on HIF2α expression was examined in these cells.

Turning to `CCCCO` [1-butanol], in the test with HIF2α, the HIF2α expression entry is listed as “suppressed”.
In the case of `CCCCCCCCCCCC(=O)OC[C@H](COP(=O)(O)O)OC(=O)CCCCCCCCCCC` [PA, 1,2-Dilauroyl-sn-Glycero-3-Phosphate], at Sos-PH [1], the “Sos-PH translocation to the plasma membrane” value is “stimulated”. Besides, the “plasma membrane recruitment of Sos-PH-HR/EE” value on Sos-PH [2] is recorded as “failed to induce”. In the test on Ras, the “Ras activation by SosΔC” value was “sufficed to induce” and the “level of active Ras in cells expressing SosΔC-HR/EE” value is “did not increase”.
